Laboratory results as given in patent US12065436B2, “Cardiac sarcomere inhibitors” (Cytokinetics, Inc., priority 2018, dated 2024).

Biological target: bovine cardiac myofibrils (full-length cardiac myosin ATPase in the native sarcomere) (Bos taurus (Bovine), UniProt Q9BE39)
Assay: Skinned bovine cardiac myofibril ATPase assay (PK/LDH-coupled)
Format: biochemical
Conditions: Ca2+ activating to 75% of maximal rate; for CDMF75 IC15: concentration giving 15% inhibition; for IC50: read-out: CDMF75 IC50
Summary of the method: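 Triton-skinned bovine left-ventricle myofibrils (1 mg/mL) in PM 12 buffer (12 mM PIPES, 2 mM MgCl2, pH 6.8) with 50 μM ATP, 0.6 mM EGTA and CaCl2 set for 50% or 75% activation. Steady-state ATPase inhibition followed by PK/LDH-coupled NADH oxidation at 340 nm.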

bovine cardiac myofibrils (full-length cardiac myosin ATPase in the native sarcomere), sequence (Q9BE39 whole entry): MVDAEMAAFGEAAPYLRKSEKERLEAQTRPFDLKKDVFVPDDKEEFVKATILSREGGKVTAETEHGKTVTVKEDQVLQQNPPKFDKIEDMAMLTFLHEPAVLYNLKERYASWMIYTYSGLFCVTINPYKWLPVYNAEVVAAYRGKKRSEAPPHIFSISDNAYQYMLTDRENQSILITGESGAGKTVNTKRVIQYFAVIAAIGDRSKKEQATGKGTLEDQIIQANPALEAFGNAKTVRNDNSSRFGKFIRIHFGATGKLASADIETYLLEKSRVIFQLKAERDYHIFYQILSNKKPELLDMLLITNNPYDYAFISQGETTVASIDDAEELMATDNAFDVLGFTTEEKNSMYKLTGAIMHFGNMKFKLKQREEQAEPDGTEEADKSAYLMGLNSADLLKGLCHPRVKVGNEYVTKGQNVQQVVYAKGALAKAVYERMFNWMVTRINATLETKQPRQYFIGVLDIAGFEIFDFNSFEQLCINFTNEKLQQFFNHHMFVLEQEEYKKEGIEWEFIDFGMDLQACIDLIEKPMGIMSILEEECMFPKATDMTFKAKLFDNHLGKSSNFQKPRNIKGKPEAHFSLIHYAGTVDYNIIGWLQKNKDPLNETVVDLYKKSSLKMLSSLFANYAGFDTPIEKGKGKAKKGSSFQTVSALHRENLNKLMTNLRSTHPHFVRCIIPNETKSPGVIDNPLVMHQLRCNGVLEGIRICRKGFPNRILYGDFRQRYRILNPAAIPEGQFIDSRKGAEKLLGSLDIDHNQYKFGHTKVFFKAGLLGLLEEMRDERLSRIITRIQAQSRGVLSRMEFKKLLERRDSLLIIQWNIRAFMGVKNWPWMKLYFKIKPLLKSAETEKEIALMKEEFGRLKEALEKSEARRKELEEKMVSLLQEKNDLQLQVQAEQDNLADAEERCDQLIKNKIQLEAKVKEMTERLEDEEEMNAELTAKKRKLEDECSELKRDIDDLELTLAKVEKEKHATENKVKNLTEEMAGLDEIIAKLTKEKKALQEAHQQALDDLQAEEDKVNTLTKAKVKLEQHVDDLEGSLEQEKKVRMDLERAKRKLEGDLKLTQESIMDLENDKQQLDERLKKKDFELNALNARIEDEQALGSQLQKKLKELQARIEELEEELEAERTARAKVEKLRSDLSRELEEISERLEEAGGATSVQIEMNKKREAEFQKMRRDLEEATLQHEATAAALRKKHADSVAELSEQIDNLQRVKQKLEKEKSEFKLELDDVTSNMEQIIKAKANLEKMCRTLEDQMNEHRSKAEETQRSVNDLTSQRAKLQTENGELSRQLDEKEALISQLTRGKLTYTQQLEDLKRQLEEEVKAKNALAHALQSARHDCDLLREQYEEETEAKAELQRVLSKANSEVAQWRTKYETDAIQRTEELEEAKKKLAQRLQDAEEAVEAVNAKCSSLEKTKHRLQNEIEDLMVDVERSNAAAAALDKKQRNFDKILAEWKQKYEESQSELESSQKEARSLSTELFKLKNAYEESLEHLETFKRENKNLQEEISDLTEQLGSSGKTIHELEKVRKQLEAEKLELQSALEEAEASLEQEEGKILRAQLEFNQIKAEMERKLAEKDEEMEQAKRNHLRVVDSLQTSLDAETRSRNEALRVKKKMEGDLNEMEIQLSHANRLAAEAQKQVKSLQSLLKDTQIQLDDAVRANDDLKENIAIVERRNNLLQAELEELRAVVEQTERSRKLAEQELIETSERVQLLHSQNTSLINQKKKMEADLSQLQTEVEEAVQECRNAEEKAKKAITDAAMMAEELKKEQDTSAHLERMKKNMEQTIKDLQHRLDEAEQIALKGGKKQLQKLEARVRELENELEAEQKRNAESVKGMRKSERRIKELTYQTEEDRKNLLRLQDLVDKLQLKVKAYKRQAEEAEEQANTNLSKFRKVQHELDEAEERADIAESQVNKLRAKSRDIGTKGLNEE
bovine cardiac myofibrils (full-length cardiac myosin ATPase in the native sarcomere), sequence (P85100 whole entry partner): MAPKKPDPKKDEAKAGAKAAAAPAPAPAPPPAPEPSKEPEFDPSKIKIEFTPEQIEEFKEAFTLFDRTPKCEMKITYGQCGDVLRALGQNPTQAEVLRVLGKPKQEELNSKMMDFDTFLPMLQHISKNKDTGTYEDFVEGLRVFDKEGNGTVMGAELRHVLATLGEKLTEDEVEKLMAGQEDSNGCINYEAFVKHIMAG
bovine cardiac myofibrils (full-length cardiac myosin ATPase in the native sarcomere), sequence (Q3SZE5 whole entry partner): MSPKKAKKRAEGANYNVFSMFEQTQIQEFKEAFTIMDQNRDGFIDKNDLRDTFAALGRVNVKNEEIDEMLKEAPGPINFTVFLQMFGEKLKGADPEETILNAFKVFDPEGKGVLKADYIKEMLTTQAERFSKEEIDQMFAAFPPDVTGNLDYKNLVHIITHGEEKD

SMILES | CDMF75 IC15 [nM] | IC50 [nM]
CCn1nc(C)c(C(=O)NC2CCc3cc(-c4noc(C(F)F)n4)ccc32)n1 (stereo not shown) [Compound 20, N-(5-(5-(difluoromethyl)-1,2,4-oxadiazol-3-yl)-2,3-dihydro-1H-inden-1-yl)-2-ethyl-5-methyl-2H-1,2,3-triazole-4-carboxamide] | 2300 | > 39200
Cc1noc(C(=O)NC2CCc3cc(-c4noc(C)n4)ccc32)n1 (stereo not shown) [Compound 128, 3-methyl-N-(5-(5-methyl-1,2,4-oxadiazol-3-yl)-2,3-dihydro-1H-inden-1-yl)-1,2,4-oxadiazole-5-carboxamide] | 2600 | 12200
CCc1nc(-c2ccc3c(c2)CC[C@H]3NC(=O)c2cnn(CC3(F)COC3)c2)no1 [Compound 508, (R)-N-(5-(5-ethyl-1,2,4-oxadiazol-3-yl)-2,3-dihydro-1H-inden-1-yl)-1-((3-fluorooxetan-3-yl)methyl)-1H-pyrazole-4-carboxamide] | 2600 | 11300
CCc1nc(-c2ccc3c(c2)CC[C@H]3NC(=O)c2cnn(CCOC)c2C)no1 [Compound 575, (R)-N-(5-(5-ethyl-1,2,4-oxadiazol-3-yl)-2,3-dihydro-1H-inden-1-yl)-1-(2-methoxyethyl)-5-methyl-1H-pyrazole-4-carboxamide] | 1100 | 4200
CCc1nc(-c2ccc3c(c2)CC[C@H]3NC(=O)c2ccon2)no1 [Compound 585, (R)-N-(5-(5-ethyl-1,2,4-oxadiazol-3-yl)-2,3-dihydro-1H-inden-1-yl)isoxazole-3-carboxamide] | 500 | 2500
Cc1noc(-c2ccc3c(c2)CC[C@H]3NC(=O)c2cn(C)nc2C)n1 [Compound 201, (R)-1,3-dimethyl-N-(5-(3-methyl-1,2,4-oxadiazol-5-yl)-2,3-dihydro-1H-inden-1-yl)-1H-pyrazole-4-carboxamide] | 1400 | 5400
CC(C)(O)C(=O)N[C@@H]1CCc2cc(-c3noc(C(F)F)n3)ccc21 [Compound 290, (R)-N-(5-(5-(difluoromethyl)-1,2,4-oxadiazol-3-yl)-2,3-dihydro-1H-inden-1-yl)-2-hydroxy-2-methylpropanamide] | 39200 | > 39200
[2H]C([2H])([2H])c1nc(-c2ccc3c(c2)OC[C@H]3NC(=O)c2cc(C)nn2C)no1 [Compound 266, (S)-1,3-dimethyl-N-(6-(5-(methyl-d3)-1,2,4-oxadiazol-3-yl)-2,3-dihydrobenzofuran-3-yl)-1H-pyrazole-5-carboxamide] | 900 | 2700
COCCn1cc(C(=O)N[C@@H]2CCc3cc(-c4noc(C5CC5)n4)ccc32)cn1 [Compound 510, (R)-N-(5-(5-cyclopropyl-1,2,4-oxadiazol-3-yl)-2,3-dihydro-1H-inden-1-yl)-1-(2-methoxyethyl)-1H-pyrazole-4-carboxamide] | 1900 | 7900
O=C(N[C@@H]1COc2cc(-c3noc(C(F)F)n3)ccc21)c1cc(CO)ccn1 [Compound 708, (S)-N-(6-(5-(difluoromethyl)-1,2,4-oxadiazol-3-yl)-2,3-dihydrobenzofuran-3-yl)-4-(hydroxymethyl)picolinamide] | 600 | 2800
Cc1noc(-c2ccc3c(c2)CC[C@H]3NC(=O)c2cccc(CO)c2)n1 [Compound 706, (R)-3-(hydroxymethyl)-N-(5-(3-methyl-1,2,4-oxadiazol-5-yl)-2,3-dihydro-1H-inden-1-yl)benzamide] | 600 | 2500
Cc1cc(C(=O)NC2COc3cc(-c4noc(C(F)F)n4)ccc32)n(C)n1 (stereo not shown) [Compound 190, N-(6-(5-(difluoromethyl)-1,2,4-oxadiazol-3-yl)-2,3-dihydrobenzofuran-3-yl)-1,3-dimethyl-1H-pyrazole-5-carboxamide] | 600 | 2000
Cc1n[nH]cc1C(=O)NC1CCc2cc(-c3noc(C(F)F)n3)ccc21 (stereo not shown) [Compound 69, N-(5-(5-(difluoromethyl)-1,2,4-oxadiazol-3-yl)-2,3-dihydro-1H-inden-1-yl)-3-methyl-1H-pyrazole-4-carboxamide] | 600 | 2300
CC(C)C(=O)N[C@@H]1CCc2cc(-c3noc(C(F)F)n3)ccc21 [Compound 284, (R)-N-(5-(5-(difluoromethyl)-1,2,4-oxadiazol-3-yl)-2,3-dihydro-1H-inden-1-yl)isobutyramide] | 38500 | > 39200
Cc1cc(-c2ccc3c(c2)CC[C@H]3NC(=O)c2ccnn2C)ncn1 [Compound 381, (R)-1-methyl-N-(5-(6-methylpyrimidin-4-yl)-2,3-dihydro-1H-inden-1-yl)-1H-pyrazole-5-carboxamide] | 39200 | > 39200
CCc1nc(-c2ccc3c(c2)CC[C@H]3NC(=O)OCC(F)F)no1 [Compound 333, 2,2-difluoroethyl (R)-(5-(5-ethyl-1,2,4-oxadiazol-3-yl)-2,3-dihydro-1H-inden-1-yl)carbamate] | 300 | 900
COCc1nc(-c2ccc3c(c2)OC[C@H]3NC(=O)c2cccc(CO)c2)no1 [Compound 711, (S)-3-(hydroxymethyl)-N-(6-(5-(methoxymethyl)-1,2,4-oxadiazol-3-yl)-2,3-dihydrobenzofuran-3-yl)benzamide] | 800 | 2800
CO[C@@H](C)c1nc(-c2ccc3c(c2)CC[C@H]3NC(=O)c2oncc2C)no1 [Compound 126, N-((R)-5-(5-((S)-1-methoxyethyl)-1,2,4-oxadiazol-3-yl)-2,3-dihydro-1H-inden-1-yl)-4-methylisoxazole-5-carboxamide] | 1600 | 5700
CCc1nc(-c2ccc3c(c2)CC[C@H]3NC(=O)c2ccc(C)cn2)no1 [Compound 642, (R)-N-(5-(5-ethyl-1,2,4-oxadiazol-3-yl)-2,3-dihydro-1H-inden-1-yl)-5-methylpicolinamide] | 1400 | 5800
CCc1nc(-c2ccc3c(c2)CC[C@H]3NC(=O)c2coc(COC)n2)no1 [Compound 467, (R)-N-(5-(5-ethyl-1,2,4-oxadiazol-3-yl)-2,3-dihydro-1H-inden-1-yl)-2-(methoxymethyl)oxazole-4-carboxamide] | 2100 | 8400
COCc1nc(-c2ccc3c(c2)CC[C@H]3NC(=O)c2c[nH]nc2C)no1 [Compound 397, (R)-N-(5-(5-(methoxymethyl)-1,2,4-oxadiazol-3-yl)-2,3-dihydro-1H-inden-1-yl)-3-methyl-1H-pyrazole-4-carboxamide] | 900 | 3200
COCc1nc(-c2ccc3c(c2)CC[C@H]3NC(=O)c2cnn(CCO)c2)no1 [Compound 523, (R)-1-(2-hydroxyethyl)-N-(5-(5-(methoxymethyl)-1,2,4-oxadiazol-3-yl)-2,3-dihydro-1H-inden-1-yl)-1H-pyrazole-4-carboxamide] | 2900 | 13300
Cc1cc(C(=O)NC2CCc3cc(-c4cc(C(F)F)no4)ccc32)ccn1 (stereo not shown) [Compound 170, N-(5-(3-(difluoromethyl)isoxazol-5-yl)-2,3-dihydro-1H-inden-1-yl)-2-methylisonicotinamide] | 3800 | 15900
